# Entries after “also recorded” stand apart in the source; their conditions may differ. Where two headings read alike, the source gives them in different places.
# Key:
# [1] = target: T1, Human Testicular 17α-Hydroxylase (Homo sapiens, UniProt P05093); experiment: Inhibition of human testicular 17α-hydroxylase (pregnenolone substrate, testicular microsomes); format: biochemical
# T1 construct: incubating human testicular microsomes; from tissue; host or cells: human testis, microsomes
# T1 sequence (P05093 1-508): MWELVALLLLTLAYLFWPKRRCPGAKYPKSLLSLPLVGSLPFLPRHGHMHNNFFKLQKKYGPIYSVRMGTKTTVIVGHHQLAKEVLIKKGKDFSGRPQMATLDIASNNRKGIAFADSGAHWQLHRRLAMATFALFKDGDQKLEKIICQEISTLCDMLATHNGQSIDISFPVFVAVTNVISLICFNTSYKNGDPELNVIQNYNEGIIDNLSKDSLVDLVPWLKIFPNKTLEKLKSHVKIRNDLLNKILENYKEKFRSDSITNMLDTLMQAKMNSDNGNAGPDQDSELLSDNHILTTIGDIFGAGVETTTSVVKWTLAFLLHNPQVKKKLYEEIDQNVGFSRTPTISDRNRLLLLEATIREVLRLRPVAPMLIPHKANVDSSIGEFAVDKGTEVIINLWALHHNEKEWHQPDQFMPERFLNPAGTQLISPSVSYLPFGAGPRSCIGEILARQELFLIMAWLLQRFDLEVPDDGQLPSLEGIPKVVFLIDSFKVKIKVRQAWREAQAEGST
# Procedure, shortened: (§1)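 Human testicular microsomes were incubated with radiolabeled pregnenolone and a range of test compound concentrations. Substrate, 17α-hydroxypregnenolone and DHEA were separated and quantified by reverse-phase HPLC. Hydroxylase activity came from total conversion to 17α-hydroxypregnenolone plus DHEA; lyase activity from conversion to DHEA alone.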
# [2] = target: T2, Human Testicular C17,20-lyase (Homo sapiens, UniProt P05093); experiment: Inhibition of human testicular C17,20-lyase (pregnenolone substrate, testicular microsomes); format: biochemical
# T2 construct: incubating human testicular microsomes; from tissue; host or cells: human testis, microsomes
# T2 sequence (P05093 1-508): T1 sequence (P05093 1-508)
# Procedure, shortened: as §1
# [3] = target: T3, human 17α-hydroxylase/C17,20-lyase (Homo sapiens, UniProt P05093); experiment: Inhibition of human testicular 17α-hydroxylase/C17,20-lyase (enzyme complex as a whole); format: biochemical; details: for inhibition of 17α-hydroxylase/C17,20-lyase (in words): NI = no inhibition; for times more potent than ketoconazole: vs ketoconazole
# T3 construct: incubating human testicular microsomes; from tissue; host or cells: human testis, microsomes
# T3 sequence (P05093 1-508): T1 sequence (P05093 1-508)
# Procedure, shortened: as §1
# adrenal 17α-hydroxylase = experiment: Inhibition of adrenal 17α-hydroxylase; format: biochemical; details: guinea pig adrenal
# Procedure: (§2) These studies were carried out using guinea pig adrenals. In contrast to the rat, the guinea pig synthesizes cortisol, like the human. […] I-5 and I-7 were of interest, as they had relatively little (4%) or no effect on the adrenal 17α-hydroxylase required for cortisol synthesis but had moderately strong effects on the C17,20 -lyase causing reduction in adrenal androgen synthesis (77% and 63%, respectively).
# adrenal C17,20-lyase = experiment: Inhibition of adrenal C17,20-lyase; format: biochemical; details: guinea pig adrenal
# Procedure: as §2
# [4] = target: T4, Human Prostatic 5α-Reductase (Homo sapiens, UniProt P31213); experiment: Inhibition of human prostatic 5α-reductase (prostatic microsomes, [3H]testosterone); details: for inhibition at 0.01 µM: read-out: % Inhibition of 5α-reductase, [I] 10 nM; for inhibition at 0.1 µM: read-out: % Inhibition of 5α-reductase, [I] 100 nM
# T4 sequence (P31213 1-254): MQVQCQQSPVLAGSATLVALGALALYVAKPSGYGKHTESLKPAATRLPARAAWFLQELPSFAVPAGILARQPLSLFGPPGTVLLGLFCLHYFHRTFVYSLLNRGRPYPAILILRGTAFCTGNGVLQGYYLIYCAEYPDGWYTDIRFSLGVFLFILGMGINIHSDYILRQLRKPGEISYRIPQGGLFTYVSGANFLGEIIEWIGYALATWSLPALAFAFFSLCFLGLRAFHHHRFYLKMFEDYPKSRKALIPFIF
# [5] = target: human androgen receptor (AR) (Homo sapiens, UniProt P10275); experiment: Androgen receptor-mediated gene transcription, wild-type AR (luciferase, CV1 cells); format: cell-based; details: against DHT stimulation
# Chain of human androgen receptor (AR) (P10275 whole entry): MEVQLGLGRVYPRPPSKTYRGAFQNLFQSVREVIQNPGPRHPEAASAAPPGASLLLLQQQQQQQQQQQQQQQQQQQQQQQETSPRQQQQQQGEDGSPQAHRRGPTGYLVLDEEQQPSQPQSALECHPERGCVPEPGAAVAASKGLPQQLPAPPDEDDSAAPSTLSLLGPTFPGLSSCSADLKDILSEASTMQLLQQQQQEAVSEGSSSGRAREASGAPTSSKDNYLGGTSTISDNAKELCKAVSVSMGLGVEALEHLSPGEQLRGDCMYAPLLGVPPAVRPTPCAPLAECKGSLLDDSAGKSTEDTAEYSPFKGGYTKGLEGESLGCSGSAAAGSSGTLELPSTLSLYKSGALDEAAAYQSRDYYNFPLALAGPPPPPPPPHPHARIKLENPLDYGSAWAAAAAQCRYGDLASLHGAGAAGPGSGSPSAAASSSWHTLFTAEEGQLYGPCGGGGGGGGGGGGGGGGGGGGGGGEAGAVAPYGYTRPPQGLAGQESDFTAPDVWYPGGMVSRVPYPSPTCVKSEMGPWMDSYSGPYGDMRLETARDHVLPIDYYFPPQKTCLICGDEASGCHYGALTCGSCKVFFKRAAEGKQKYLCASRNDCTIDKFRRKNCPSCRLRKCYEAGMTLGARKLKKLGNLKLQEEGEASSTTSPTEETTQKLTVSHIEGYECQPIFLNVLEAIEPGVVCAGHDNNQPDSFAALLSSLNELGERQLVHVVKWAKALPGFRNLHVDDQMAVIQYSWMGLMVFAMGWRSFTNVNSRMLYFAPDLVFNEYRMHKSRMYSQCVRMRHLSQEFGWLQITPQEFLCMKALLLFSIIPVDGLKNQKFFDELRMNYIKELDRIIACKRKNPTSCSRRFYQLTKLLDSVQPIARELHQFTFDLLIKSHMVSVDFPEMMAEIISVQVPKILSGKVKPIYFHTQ
# [6] = test system: mutant AR which is expressed in LNCaP cells; experiment: Androgen receptor-mediated gene transcription, mutant AR of LNCaP cells (luciferase, CV1 cells); format: cell-based, human
# normal male rats = experiment: In vivo studies in normal male rats: hormone levels; set-up: species or system rat; details: rat
# Text: (§3) Studies in normal male rats have been carried out with 4-pregnen-3-one-20β-carboxaldehyde (I-16) (Li et al., 1992) and with its 20-carboxaldoxime (I-23)(Li et al., 1995).
# [7] = test system: LNCaP human prostatic tumors; experiment: Human prostatic cancer (LNCaP) xenograft in male nude mice; format: in vivo, human (LNCaP) tumors in BALB/c male athymic mice; details: for total tumor volume (% of initial volume), 5 weeks / mean tumor weight, 5-week experiment: five weeks; for total tumor volume (% of initial volume), 5 weeks: 4 mice per group, control 884.0%, FIG. 2; for mean tumor weight, 5-week experiment: control 1310.5±1125.9 mg, I-49 p<0.05 vs control
# Procedure: We have reported that inoculation of MCF-7 breast cancer cells in Matrigel increases mammary tumor formation in nude mice (Yue et al., 1994). The same procedure was therefore utilized to develop tumors from human prostatic cancer cells (LNCAP) in male nude mice. BALB/c male athymic mice, 4-6 weeks old, were inoculated sc with LNCaP cells suspended in Matrigel (10 mg/ml). Four sites per mouse were injected with 1.8×10^6 cells in 0.1 ml Matrigel. Treatment began when the tumor reached about 100 mm^3 in volume. Tumors were measured before the treatment began and once a week during treatment. Tumor volume was calculated by the formula 4/3πr1^2 r2 (r1 <r2).At the end of treatment, the mice were sacrificed and individual tumors were weighed. The latency of tumor development was 30-40 days and overall tumorigenicity was 82%.
# In a further experiment, two mice were treated with I-16 (1 mg/mouse/day, s.c.) beginning 45 days after cell inoculation. Two mice received vehicle as controls. […] The mean tumor weight was 198.78±72 mg in I-16 treated mice compared to 386.3±147.2 mg in the control group. In other experiments, I-47 and I-49 were effective in controlling tumor growth. The total tumor volume of the control mice increased to 884.0% of the initial volume.
# [8] = test system: rat 17α-hydroxylase/C17,20-lyase; experiment: Inhibition of rat 17α-hydroxylase/C17,20-lyase; format: biochemical
# Text: as §3
# [9] = test system: adrenal 17α-hydroxylase/C17,20-lyase; experiment: Inhibition of adrenal 17α-hydroxylase/C17,20-lyase; format: biochemical; details: guinea pig adrenal
# [10] = test system: LNCaP human prostatic cancer cell line; experiment: Androgen-dependent growth of LNCaP cells; details: for reversal of DHT-stimulated LNCaP growth (in words) / reversal of DHT-stimulated LNCaP growth at 5 μM (in words): 0.03 nM DHT; for reversal of testosterone-stimulated LNCaP growth (in words): inhibitor 0.3-5 μM, 9 days
# Procedure: The ability of various inhibitors to reverse the stimulatory effect of testosterone on the growth of the LNCaP human prostatic cancer cell line was tested by comparing cell number in wells treated for 9 days with either drug vehicle only (control), 0.1 nM testosterone only, or 0.1 nM testosterone with inhibitor at 0.3, 1, 2.5, or 5 μM.
# [11] = test system: human prostatic tissue (BPH or prostate cancer); experiment: Prostate tissue in histoculture, DNA synthesis ([3H]-thymidine uptake); details: inhibitor 1 μM; for reversal of testosterone-stimulated DNA synthesis (in words), 1 μM: testosterone 1 μM, FIG. 1
# Procedure: We recently developed a histoculture method to evaluate the growth inhibiting properties of the compounds on human prostatic tissue. […] The tissue samples were then incubated for 3 days in fresh medium/treatment containing 2 μCi/ml [^3 H]-thymidine. Tissue was then digested and DNA extracted. For each sample, [^3 H]-thymidine uptake was normalized to DNA content. […] This finding is consistent with the compound acting as an antiandrogen. None of the compounds produced an independent effect on DNA synthesis in the absence of added androgens.
# [12] = Table 1, NI = no inhibition, CI = complete inhibition, read-out: IC50 C17,20 lyase
# [13] = Table 1, NI = no inhibition, read-out: IC50 17α-OHase
# [14] = Table 3, first figure of 17α-hydroxylase/lyase pair, read-out: IC50 17α-hydroxylase
# [15] = first figure of pair, read-out: IC50 17α-hydroxylase
# [16] = second figure of pair, read-out: IC50 C17,20-lyase
SMILES,"inhibition of 17α-hydroxylase/C17,20-lyase (in words) [3]","reduction in adrenal androgen synthesis (C17,20-lyase) (adrenal C17,20-lyase)",inhibition at 0.01 µM [4],inhibition at 0.1 µM [4],"IC50 [2, 12]",antagonism of wild-type AR (in words) [5],agonism/antagonism at mutant AR of LNCaP cells (in words) [6],"IC50 [1, 13]","IC50 [1, 14]","IC50 [1, 15]","IC50 [2, 16]",times more potent than ketoconazole [3],effect on adrenal enzyme (in words) [9],reversal of DHT-stimulated LNCaP growth (in words) [10],reversal of DHT-stimulated LNCaP growth at 5 μM (in words) ([10]; inhibitor 5 μM),reversal of testosterone-stimulated LNCaP growth (in words) ([10]; 0.1 nM testosterone),"reversal of testosterone-stimulated DNA synthesis (in words), 1 μM [11]","total tumor volume (% of initial volume), 5 weeks [7]","mean tumor weight, 5-week experiment [7]",other results
"CC(=NO)C1=CC[C@H]2[C@@H]3CC=C4C[C@@H](O)CC[C@]4(C)[C@H]3CC[C@]12C [Compound I-5, 16-dehydropregnenolone-20-oxime]",potent inhibition,77%,0%,5.92%,–,–,–,–,–,–,–,–,–,–,–,–,–,–,–,"IC50 ([1]; IC50 17α-OHase): 16 nM; IC50 ([2]; IC50 C17,20 lyase): 16 nM; fold more potent inhibition than 20-oxime (I-1) ([3]; vs I-1): 35 fold; effect on adrenal 17α-hydroxylase (adrenal 17α-hydroxylase; 17α-hydroxylase required for cortisol synthesis): 4%"
C[C@]12CC[C@H]3[C@@H](CC=C4C[C@@H](O)CC[C@@]43C)[C@@H]1CC[C@@H]2[C@]1(C)CO1 [Compound I-7],–,63%,13.6%,12.1%,720 nM,–,–,–,–,–,–,–,–,–,–,–,–,–,–,effect on adrenal 17α-hydroxylase (in words) (adrenal 17α-hydroxylase): no effect
"C[C@H](C=O)[C@H]1CC[C@H]2[C@@H]3CCC4=CC(=O)CC[C@]4(C)[C@H]3CC[C@]12C [Compound I-16, 4-pregnen-3-one-20β-carboxaldehyde]",significant inhibition,–,20.5%,87.2%,–,dose-dependent antagonism,agonists,–,–,–,–,–,–,–,–,–,–,–,–,"reduction of testosterone and DHT levels in serum, testicular and prostatic tissues (in words) (normal male rats): significantly reducing testosterone and DHT levels; total tumor volume (% of initial volume), 3 weeks ([7]; 1 mg/mouse/day s.c., 3 weeks, two mice, control 281%): 173.6%; mean tumor weight, 3-week experiment ([7]; 1 mg/mouse/day s.c., control 386.3±147.2 mg): 198.78 ± 72 mg; inhibition of rat 17α-hydroxylase/C17,20-lyase (in words) [8]: inhibit rat 17α-hydroxylase/C17,20 -lyase"
"C[C@]12CC[C@H]3[C@@H](CC=C4C[C@@H](O)CC[C@@]43C)[C@@H]1CC[C@@H]2c1c[nH]cn1 [Compound I-47, 17β-(4'-imidazolyl)-androst-5-en-3β-ol]",potent inhibitors,–,–,–,23 nM,dose-dependent antagonism,antagonist; also recorded: not an agonist of the mutant receptor,25 nM,25.2 nM,11 nM,7 nM,10-50 times,very little effect,dose-dependent reversal,nearly complete reversal,dose-dependent reversal,almost complete reversal,525.8%,607.0 ± 142.4 mg,"IC50 ([2]; Table 3, second figure of pair, CI = complete inhibition, read-out: IC50 lyase): 22.6 nM; reversal of testosterone-stimulated LNCaP growth at 5 μM (in words) ([10]; 0.1 nM testosterone, inhibitor 5 μM): almost completely reversed; IC50 ([10]; Homo sapiens, LNCaP, 216 h, read-out: concentration reducing the stimulatory effect of testosterone by 50%): ≤ 1000 nM; reversal of DHT-stimulated DNA synthesis (in words), 1 μM ([11]; DHT 10 nM): almost completely reversed"
"C[C@]12CC[C@H](O)CC1=CC[C@@H]1[C@@H]2CC[C@]2(C)C(c3c[nH]cn3)=CC[C@@H]12 [Compound I-49, 17β-(4'-imidazolyl)-androsta-5,16-dien-3β-ol]",potent inhibitors,–,–,26.3%,9 nM,–,–,8 nM,8.82 nM,4 nM,4 nM,10-50 times,very little effect,dose-dependent reversal,nearly complete reversal,dose-dependent reversal,partially effective,315.3%,255.9 ± 176.9 mg,"fold increase of inhibition by 16,17 double bond ([3]; vs I-47): 2 fold"
